This is an account of results in patent US8350027B2, “Dual-acting pyrazole antihypertensive agents” (Theravance, Inc., priority 2009, dated 2013).

The structures appear in SMILES notation. Bounds are passed on as bounds.

Experiment [1] addresses T1, human AT1 receptor (Homo sapiens, UniProt P30556).
T1 construct: expressed in transfected cells; host or cells: CHO-K1
T1 sequence (P30556 1-359): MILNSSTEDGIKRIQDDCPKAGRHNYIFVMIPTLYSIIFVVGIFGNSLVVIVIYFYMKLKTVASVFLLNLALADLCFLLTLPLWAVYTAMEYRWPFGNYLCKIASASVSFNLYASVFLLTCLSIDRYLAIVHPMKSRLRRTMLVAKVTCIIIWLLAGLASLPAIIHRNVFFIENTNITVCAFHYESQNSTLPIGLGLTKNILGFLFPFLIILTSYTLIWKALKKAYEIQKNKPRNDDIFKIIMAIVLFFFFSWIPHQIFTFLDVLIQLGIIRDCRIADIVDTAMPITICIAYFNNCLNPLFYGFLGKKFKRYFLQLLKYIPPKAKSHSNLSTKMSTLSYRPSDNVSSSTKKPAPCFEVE
In words: AT1 radioligand binding assay (displacement of [Eu]AngII). As to conditions: membranes of CHO-K1 cells expressing cloned human AT1 receptor; values given as lower bounds; read-out: AT1 pKi (converted). In a few lines: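 Membranes from CHO-K1 cells stably expressing cloned human AT1, 0.2 μg protein, in 50 mM Tris/HCl pH 7.5, 5 mM MgCl2, 0.025% BSA. Compounds displaced [Eu]AngII over 120 min in the dark at room temperature or 37° C; filter-bound TRF read. Nonspecific binding with 10 μM angiotensin II; IC50 converted to Ki via Cheng-Prusoff, reported as pKi.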

The target of experiment [2] is T2, NEP enzyme (Homo sapiens, UniProt P08473).
T2 construct: purchased R&D Systems, Minneapolis, Minn; 1182-ZN
In words: NEP enzyme inhibition assay (fluorogenic peptide substrate). The format is biochemical. As to conditions: values given as lower bounds; * = prodrugs, may not exhibit NEP activity in an in vitro assay; read-out: NEP pIC50 (converted). The method, boiled down:
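Recombinant human NEP was run with Mca-BK2 (10 μM) at room temperature in Tris buffer with 1 μM Zn. Compounds (10 μM–20 pM, 12 points) were pre-equilibrated 10 min, then reacted 20 min and acid-stopped. Fluorescence ex 320/em 405 nm, one-site competition fit gives pIC50. Thiol compounds may be pre-treated with 400 μM TCEP.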

T2 sequence (P08473 52-750 limits assumed): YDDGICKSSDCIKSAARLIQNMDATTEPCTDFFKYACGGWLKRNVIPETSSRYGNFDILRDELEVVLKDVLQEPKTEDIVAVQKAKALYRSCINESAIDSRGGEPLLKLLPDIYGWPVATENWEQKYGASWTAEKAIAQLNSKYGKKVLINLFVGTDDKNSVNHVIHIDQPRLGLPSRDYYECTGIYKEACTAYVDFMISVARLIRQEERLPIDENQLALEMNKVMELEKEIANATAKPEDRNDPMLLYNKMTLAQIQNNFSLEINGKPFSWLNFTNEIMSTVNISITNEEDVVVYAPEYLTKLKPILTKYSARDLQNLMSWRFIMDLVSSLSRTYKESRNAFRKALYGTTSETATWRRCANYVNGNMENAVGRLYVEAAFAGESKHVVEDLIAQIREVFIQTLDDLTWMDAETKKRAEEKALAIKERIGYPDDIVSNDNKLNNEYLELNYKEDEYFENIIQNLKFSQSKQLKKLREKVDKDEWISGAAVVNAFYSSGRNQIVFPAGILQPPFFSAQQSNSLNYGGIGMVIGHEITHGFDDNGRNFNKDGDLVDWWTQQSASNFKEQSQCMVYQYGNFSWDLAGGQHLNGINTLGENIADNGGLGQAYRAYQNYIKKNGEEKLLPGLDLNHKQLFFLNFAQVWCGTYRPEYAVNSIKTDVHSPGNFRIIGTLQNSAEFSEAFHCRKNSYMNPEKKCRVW

In the case of `CCCc1cc(C(=O)N[C@@H](CC(=O)O)Cc2ccsc2)nn1Cc1ccc(-c2ccccc2-c2nnn[nH]2)nc1` [Example 14-10, (R)-3-[(5-Propyl-1-{6-[2-(1H-tetrazol-5-yl)-phenyl]-pyridin-3-ylmethyl}-1H-pyrazole-3-carbonyl)-amino]-4-thiophen-3-yl-butyric acid], the Ki in experiment [1] is not above 10 nM. The IC50 in experiment [2] was not above 100 nM.

As to `CCCc1cc(C(=O)N[C@H](Cc2ccccc2)[C@@H](O)C(=O)O)nn1Cc1ccc(-c2ccccc2S(=O)(=O)NC(=O)c2ccccc2F)cc1` [Example 7-3, (2R,3R)-3-({1-[2′-(2-Fluorobenzoylsulfamoyl)biphenyl-4-ylmethyl]-5-propyl-1H-pyrazole-3-carbonyl}amino)-2-hydroxy-4-phenylbutyric acid], the Ki in experiment [1] was not above 10 nM. Also, the IC50 in experiment [2] is not above 1000 nM.

Turning to `CCCc1cc(C(=O)N[C@@H](CS)CC(C)C)nn1Cc1ccc(-c2ccccc2-c2nnn[nH]2)cc1F` [Example 3-3, 1-[3-Fluoro-2′-(1H-tetrazol-5-yl)biphenyl-4-ylmethyl]-5-propyl-1H-pyrazole-3-carboxylic acid ((R)-1-mercaptomethyl-3-methylbutyl)amide], the Ki in experiment [1] is not above 100 nM. For the same compound, in experiment [2], the IC50 was not above 100 nM.

For `CCOc1cc(C(=O)N[C@@H](CS)Cc2ccccc2)nn1Cc1ccc(-c2ccccc2S(=O)(=O)NC(C)=O)cc1F` [Example 6-1, 1-(2′-Acetylsulfamoyl-3-fluorobiphenyl-4-ylmethyl)-5-ethoxy-1H-pyrazole-3-carboxylic acid ((R)-1-benzyl-2-mercaptoethyl)amide], in experiment [1], the Ki was not above 10 nM. For the same compound, the IC50 in experiment [2] was not above 100 nM.

Consider `CCCCc1cc(C(=O)N[C@@H](CS)CC(C)C)nn1Cc1ccc(-c2ccccc2C(=O)O)cc1F` [Example 9-3, 4′-[5-Butyl-3-((R)-1-mercaptomethyl-3-methylbutylcarbamoyl)-pyrazol-1-ylmethyl]-3′-fluorobiphenyl-2-carboxylic acid], for which the Ki in experiment [1] was not above 100 nM. In addition, in experiment [2], the IC50 was not above 100 nM.

Regarding `CCCc1cc(C(=O)N[C@H](Cc2ccccc2)[C@@H](O)C(=O)O)nn1Cc1ccc(-c2ccccc2-c2nnn[nH]2)cc1F` [Example 3-23, (2R,3R)-3-(1-((3-fluoro-2′-(1H-tetrazol-5-yl)biphenyl-4-yl)methyl)-5-propyl-1H-pyrazole-3-carboxamido)-2-hydroxy-4-phenylbutanoic acid], in experiment [1], the Ki was not above 10 nM. Also, the IC50 in experiment [2] is not above 100 nM.

With `CCCc1cc(C(=O)N[C@H](Cc2ccccc2)[C@@H](O)C(=O)O)nn1Cc1ccc(-c2ccccc2S(=O)(=O)NC(=O)NC)cc1` [Example 7-11, (2R,3R)-2-hydroxy-3-(1-((2′-(N-(methylcarbamoyl)sulfamoyl)biphenyl-4-yl)methyl)-5-propyl-1H-pyrazole-3-carboxamido)-4-phenylbutanoic acid], the Ki in experiment [1] was not above 10 nM. The IC50 in experiment [2] was not above 100 nM.

For the compound `CCCc1cc(C(=O)N[C@H](Cc2ccccc2)[C@@H](O)C(=O)O)nn1Cc1ccc(-c2ccccc2S(=O)(=O)NC(=O)C(C)C)cc1` [Example 6-12, (2R,3R)-2-Hydroxy-3-{[1-(2′-isobutyrylsulfamoylbiphenyl-4-ylmethyl)-5-propyl-1H-pyrazole-3-carbonyl]amino}-4-phenylbutyric acid], the Ki in experiment [1] was not above 10 nM. Further, the IC50 in experiment [2] was not above 1000 nM.

As to `CCCc1cc(C(=O)N[C@@H](CC(=O)O)Cc2cccc(F)c2)nn1Cc1ccc(-c2ccccc2-c2nnn[nH]2)nc1` [Example 14-12, (R)-4-(3-Fluorophenyl)-3-[(5-propyl-1-{6-[2-(1H-tetrazol-5-yl)phenyl]pyridin-3-ylmethyl}-1H-pyrazole-3-carbonyl)amino]butyric acid], the Ki in experiment [1] was not above 10 nM. The IC50 in experiment [2] was not above 100 nM.

Regarding `CCCc1cc(C(=O)N[C@H](Cc2ccccc2)[C@@H](O)C(=O)O)nn1Cc1ccc(-c2ccccc2S(=O)(=O)NC(=O)N2CCOCC2)cc1` [Example 7-22, (2R,3R)-2-Hydroxy-3-[(1-{2′-[(morpholine-4-carbonyl)sulfamoyl]biphenyl-4-ylmethyl}-5-propyl-1H-pyrazole-3-carbonyl)amino]-4-phenylbutyric acid], in experiment [1], the Ki was not above 100 nM. In experiment [2], the IC50 is not above 100 nM.

Turning to `CCOc1cc(C(=O)N[C@@H](CS)CC(C)C)nn1Cc1ccc(-c2ccccc2-c2nnn[nH]2)cc1F` [Example 3-38, 5-Ethoxy-1-[3-fluoro-2′-(1H-tetrazol-5-yl)biphenyl-4-ylmethyl]-1H-pyrazole-3-carboxylic acid ((R)-1-mercaptomethyl-3-methylbutyl)amide], in experiment [1], the Ki is not above 100 nM. For the same compound, the IC50 in experiment [2] is not above 100 nM.

Consider `CCCc1cc(C(=O)N[C@@H](CC(=O)O)Cc2ccccc2Cl)nn1Cc1ccc(-c2ccccc2-n2nn[nH]c2=O)cc1` [Example 16-5, (R)-4-(2-Chlorophenyl)-3-({1-[2′-(5-oxo-4,5-dihydrotetrazol-1-yl)-biphenyl-4-ylmethyl]-5-propyl-1H-pyrazole-3-carbonyl}amino)butyric acid], for which the Ki in experiment [1] was not above 10 nM. The IC50 in experiment [2] was not above 1000 nM.

Consider `CCCc1cc(C(=O)N[C@@H](CC(=O)O)Cc2ccccc2C(F)(F)F)nn1Cc1ccc(-c2ccccc2-c2nnn[nH]2)cc1F` [Example 3-21, (R)-3-(1-((3-fluoro-2′-(1H-tetrazol-5-yl)biphenyl-4-yl)methyl)-5-propyl-1H-pyrazole-3-carboxamido)-4-(2-(trifluoromethyl)phenyl)butanoic acid], for which the Ki in experiment [1] was not above 100 nM. In addition, the IC50 in experiment [2] is not above 1000 nM.

`CCCc1cc(C(=O)N[C@@H](CC(=O)O)Cc2ccccc2Cl)nn1Cc1ccc(-c2ccccc2S(=O)(=O)NC(C)=O)cn1` [Example 15-4, (R)-3-({1-[5-(2-Acetylsulfamoylphenyl)pyridin-2-ylmethyl]-5-propyl-1H-pyrazole-3-carbonyl}amino)-4-(2-chlorophenyl)butyric acid]: the Ki in experiment [1] is not above 100 nM. Besides, in experiment [2], the IC50 is not above 1000 nM.

`CCCc1cc(C(=O)N[C@@H](CC(=O)O)Cc2ccccc2Cl)nn1Cc1cnc(-c2ccccc2S(=O)(=O)NC(C)=O)cn1` [Example 17-6, (R)-3-({1-[5-(2-Acetylsulfamoyl-phenyl)-pyrazin-2-ylmethyl]-5-propyl-1H-pyrazole-3-carbonyl}amino)-4-(2-chloro-phenyl)butyric acid]: in experiment [1], the Ki is not above 10 nM. The IC50 in experiment [2] is not above 1000 nM.

As to `CCCc1cc(C(=O)N[C@@H](CC(=O)O)Cc2ccccc2Cl)nn1Cc1ccc(-c2ccccc2-c2nnn[nH]2)c(F)c1` [Example 3-18, (R)-4-(2-Chlorophenyl)-3-({1-[2-fluoro-2′-(1H-tetrazol-5-yl)biphenyl-4-ylmethyl]-5-propyl-1H-pyrazole-3-carbonyl}amino)butyric acid], in experiment [1], the Ki is not above 10 nM. The IC50 in experiment [2] was not above 1000 nM.

With `CCCc1cc(C(=O)N[C@H](CC(C)C)CN(O)C=O)nn1Cc1ccc(-c2ccccc2-c2nnn[nH]2)cc1` [Example 3-25, 5-Propyl-1-[2′-(1H-tetrazol-5-yl)-biphenyl-4-ylmethyl]-1H-pyrazole-3-carboxylic acid {(R)-1-[(formylhydroxyamino)methyl]-3-methylbutyl}amide], the Ki in experiment [1] was not above 10 nM. In addition, the IC50 in experiment [2] was not above 100 nM.

On to `CCCc1cc(C(=O)N[C@@H](CC(=O)O)Cc2ccccc2C(F)(F)F)nn1Cc1ccc(-c2ccccc2-c2nnn[nH]2)c(F)c1` [Example 3-19, (R)-3-({1-[2-Fluoro-2′-(1H-tetrazol-5-yl)-biphenyl-4-ylmethyl]-5-propyl-1H-pyrazole-3-carbonyl}amino)-4-(2-trifluoromethylphenyl)butyric acid], for which, in experiment [1], the Ki is not above 100 nM. The IC50 in experiment [2] is not above 1000 nM.

As to `CCCc1cc(C(=O)N[C@@H](CC(=O)O)Cc2ccccc2C(F)(F)F)nn1Cc1ccc(-c2ccccc2-c2nnn[nH]2)nc1` [Example 11, (R)-3-[(5-Propyl-1-{6-[2-(1H-tetrazol-5-yl)-phenyl]-pyridin-3-ylmethyl}-1H-pyrazole-3-carbonyl)-amino]-4-(2-trifluoromethylphenyl)butyric Acid], in experiment [1], the Ki was not above 10 nM. The IC50 in experiment [2] is not above 100 nM.

Take `CCCCc1cc(C(=O)N[C@@H](CS)Cc2ccccc2)nn1Cc1ccc(-c2ccccc2C(=O)O)cc1F` [Example 9-4, 4′-[3-((R)-1-Benzyl-2-mercaptoethylcarbamoyl)-5-butylpyrazol-1-ylmethyl]-3′-fluorobiphenyl-2-carboxylic acid]: the Ki in experiment [1] is not above 100 nM. Further, the IC50 in experiment [2] is not above 100 nM.

As to `CCCc1cc(C(=O)N[C@H](Cc2ccccc2)[C@@H](O)C(=O)O)nn1Cc1ccc(-c2ccccc2-c2nnn[nH]2)cc1` [Example 1, (2R,3R)-3-(1-((2′-(1H-tetrazol-5-yl)biphenyl-4-yl)methyl)-5-propyl-1H-pyrazole-3-carboxamido)-2-hydroxy-4-phenylbutanoic Acid], the Ki in experiment [1] is not above 10 nM. In addition, in experiment [2], the IC50 was not above 1000 nM.
